In patent US20180282819A1, “Targeting the Histone Pathway to Detect and Overcome Anthracyclin Resistance” (ONTARIO INSTITUTE FOR CANCER RESEARCH (OICR), priority 2015, published 2018):

Experiments:
Assay type in all cases: cell-based, human
[1] = system: MDA-MB-231 resistant cells; assay: Cell cycle, PI flow cytometry after double-thymidine block; conditions: 25 nM epirubicin, 48 h
Protocol: (§1) (A-D) Cells were synchronized by a double-thymidine block and treated with DMSO or epirubicin at selection doses established for each resistant cell line: 25 nM epirubicin to MDA-MB-231, 30 nM epirubicin to MCF7, 15 nM epirubicin to SKBR3 and […]. Epirubicin concentration was increased to 100 nM for MCF7 and SKBR3 cells since G2/M block was not observed at the lower doses of epirubicin. Cells were collected at 48 h, stained by PI and analyzed by flow cytometry. Debris was gated out.
(§2) For cell cycle, cells were synchronized by the double-thymidine block (Whitfield et al. 2000) and incubated with DMSO or epirubicin doses established for each cell line: 25 nM for MDA-MB-231, 30 nM for MCF7, 15 nM for SKBR3, 10 nM for ZR-75-1. Cells were collected at 48 h, fixed with 80% ethanol and incubated with 2 mg/ml RNase A and 0.1 mg/ml propidium iodide (both from Sigma, Oakville, Canada) prior to analysis. For apoptosis experiments, cells were treated with DMSO or epirubicin at concentrations described above, and collected at 72 h for staining with Annexin V apoptosis-detection eFluor450 (eBioscience, San Diego, USA). Data were collected by FACSCanto II and FACSDiva (BD Biosciences, Mississauga, Canada) and analyzed by FlowJo (Treestar, Ashland, USA).
(§3) Cells were synchronized prior to exposure to DMSO or epirubicin. […] Therefore, overcoming a G2/M block may be part of the process leading to epirubicin resistance.

[2] = system: MCF7 epirubicin-resistant cells; assay: as above; conditions: 100 nM epirubicin, 48 h
Protocol: as §1, §2, §3

SKBR3 native cells = assay: as above; conditions: 100 nM epirubicin, 48 h
Protocol: as §1, §2, §3

ZR-75-1 resistant cells = assay: as above; conditions: 10 nM epirubicin, 48 h
Protocol: as §1, §2, §3

[3] = system: SKBR3 epirubicin-resistant cells; assay: as above; conditions: 100 nM epirubicin, 48 h
Protocol: as §1, §2, §3

MDA-MB-231 native cells = assay: as above; conditions: 25 nM epirubicin, 48 h
Protocol: as §1, §2, §3

MCF7 native cells = assay: as above; conditions: 100 nM epirubicin, 48 h
Protocol: as §1, §2, §3

ZR-75-1 native cells = assay: as above; conditions: 10 nM epirubicin, 48 h
Protocol: as §1, §2, §3

[4] = system: MDA-MB-231 25 nM-Resistant; assay: Proliferation, cell-doubling time; conditions: +25 nM epirubicin
Protocol: (§4) Cells were cultured in the presence or absence of epirubicin for up to 96 h (see Flow Cytometry for epirubicin concentrations). Cells were collected at 24, 48, 72 and 96 hours and counted by ViCell (Beckman Coulter, Mississauga, Canada). Data were analyzed in GraphPad Prism5 software.
(§5) To determine cell-doubling time, the investigators cultured cells with or without epirubicin for up to 96 h. In the absence of epirubicin, the native MDA-MB-231 and MCF7 cell populations doubled every 25 h and 29 h, respectively (Table 2), whereas native SKBR3 and ZR-75-1 cells grew more slowly, doubling every 45 h and 50 h, respectively. In the presence of epirubicin, doubling time increased 2.8-fold for the MDA-MB-231 (p=0.0371), 2.5-fold for MCF7 (ns), 1.3-fold for SKBR3 (p=0.0494) and 1.9-fold for ZR-75-1 (p=0.0258) for native cells. In contrast to the native cell lines, there were no marked changes in the doubling time of the resistant cells, regardless of whether epirubicin was added (Table 2).

MCF7 Native [5] = assay: Proliferation, cell-doubling time
Protocol: as §4, §5

MDA-MB-231 Native [6] = assay: Proliferation, cell-doubling time
Protocol: as §4, §5

SKBR3 15 nM-Resistant = assay: Proliferation, cell-doubling time; conditions: +15 nM epirubicin
Protocol: as §4, §5

MCF7 30 nM-Resistant = assay: Proliferation, cell-doubling time; conditions: +30 nM epirubicin
Protocol: as §4, §5

ZR-75-1 Native [7] = assay: Proliferation, cell-doubling time
Protocol: as §4, §5

SKBR3 Native [8] = assay: Proliferation, cell-doubling time
Protocol: as §4, §5

ZR-75-1 10 nM-Resistant = assay: Proliferation, cell-doubling time; conditions: +10 nM epirubicin
Protocol: as §4, §5

ZR-75-1 10 nM-R = assay: Apoptosis, Annexin V flow cytometry; conditions: 72 h
Protocol: as §2
(§6) To assess the effects of epirubicin on apoptosis, apoptotic cells were scored by flow cytometry after 72 h of exposure to epirubicin. The apoptotic index was consistently lower for resistant cells compared to native controls (Table 1). In particular, MDA-MB-231 and SKBR3 resistant cells required a substantially higher concentration of epirubicin (1000 nM) to induce apoptosis; even at this concentration of epirubicin, the apoptotic index was still nearly 50% lower compared to the native cells (Table 1).

MCF7 Native [9] = assay: Apoptosis, Annexin V flow cytometry; conditions: 72 h
Protocol: as §2, §6

MDA-MB-231 Native [10] = assay: Apoptosis, Annexin V flow cytometry; conditions: 72 h
Protocol: as §2, §6

MCF7 30 nM-R = assay: Apoptosis, Annexin V flow cytometry; conditions: 72 h
Protocol: as §2, §6

ZR-75-1 Native [11] = assay: Apoptosis, Annexin V flow cytometry; conditions: 72 h
Protocol: as §2, §6

MDA-MB-231 25 nM-R = assay: Apoptosis, Annexin V flow cytometry; conditions: 72 h
Protocol: as §2, §6

SKBR3 Native [12] = assay: Apoptosis, Annexin V flow cytometry; conditions: 72 h
Protocol: as §2, §6

SKBR3 15 nM-R = assay: Apoptosis, Annexin V flow cytometry; conditions: 72 h
Protocol: as §2, §6

## COc1cccc2c1C(=O)c1c(O)c3c(c(O)c1C2=O)C[C@@](O)(C(=O)CO)C[C@@H]3O[C@H]1C[C@H](N)[C@@H](O)[C@H](C)O1 [epirubicin]
[1]
  effect on cell cycle: progressed through
[2]
  effect on cell cycle: minimal effect
SKBR3 native cells
  effect on cell cycle: arrested in G2/M phase
ZR-75-1 resistant cells
  effect on cell cycle: progressed through
[3]
  effect on cell cycle: minimal effect
MDA-MB-231 native cells
  effect on cell cycle: arrested in G2/M phase
MCF7 native cells
  effect on cell cycle: arrested in G2/M phase
ZR-75-1 native cells
  effect on cell cycle: arrested in G2/M phase
[4]
  Doubling times: 43 h
MCF7 Native [5]; MCF7 Native, +30 nM epirubicin
  Doubling times: 74 h
MCF7 Native [5]; MCF7 native cells, ns
  increase of doubling time in the presence of epirubicin: 2.5 fold
MDA-MB-231 Native [6]; MDA-MB-231 Native, +25 nM epirubicin
  Doubling times: 70 h
MDA-MB-231 Native [6]; MDA-MB-231 native cells, p=0.0371
  increase of doubling time in the presence of epirubicin: 2.8 fold
SKBR3 15 nM-Resistant
  Doubling times: 66 h
MCF7 30 nM-Resistant
  Doubling times: 37 h
ZR-75-1 Native [7]; ZR-75-1 Native, +10 nM epirubicin
  Doubling times: 95 h
ZR-75-1 Native [7]; ZR-75-1 native cells, p=0.0258
  increase of doubling time in the presence of epirubicin: 1.9 fold
SKBR3 Native [8]; SKBR3 Native, +15 nM epirubicin
  Doubling times: 57 h
SKBR3 Native [8]; SKBR3 native cells, p=0.0494
  increase of doubling time in the presence of epirubicin: 1.3 fold
ZR-75-1 10 nM-Resistant
  Doubling times: 67 h
ZR-75-1 10 nM-R; 1 nM epirubicin
  Percentages of apoptotic cells: 28%
ZR-75-1 10 nM-R; 10 nM epirubicin
  Percentages of apoptotic cells: 29%
ZR-75-1 10 nM-R; 1000 nM epirubicin
  Percentages of apoptotic cells: 62%
MCF7 Native [9]; 1 nM epirubicin
  Percentages of apoptotic cells: 29%
MCF7 Native [9]; 30 nM epirubicin
  Percentages of apoptotic cells: 49%
MCF7 Native [9]; 1000 nM epirubicin
  Percentages of apoptotic cells: 77%
MDA-MB-231 Native [10]; 1 nM epirubicin
  Percentages of apoptotic cells: 17%
MDA-MB-231 Native [10]; 25 nM epirubicin
  Percentages of apoptotic cells: 41%
MDA-MB-231 Native [10]; 1000 nM epirubicin
  Percentages of apoptotic cells: 94%
MCF7 30 nM-R; 1 nM epirubicin
  Percentages of apoptotic cells: 24%
MCF7 30 nM-R; 30 nM epirubicin
  Percentages of apoptotic cells: 23%
MCF7 30 nM-R; 1000 nM epirubicin
  Percentages of apoptotic cells: 78%
ZR-75-1 Native [11]; 1 nM epirubicin
  Percentages of apoptotic cells: 44%
ZR-75-1 Native [11]; 10 nM epirubicin
  Percentages of apoptotic cells: 47%
ZR-75-1 Native [11]; 1000 nM epirubicin
  Percentages of apoptotic cells: 71%
MDA-MB-231 25 nM-R; 1 nM epirubicin
  Percentages of apoptotic cells: 10%
MDA-MB-231 25 nM-R; 25 nM epirubicin
  Percentages of apoptotic cells: 8%
MDA-MB-231 25 nM-R; 1000 nM epirubicin
  Percentages of apoptotic cells: 50%
SKBR3 Native [12]; 1 nM epirubicin
  Percentages of apoptotic cells: 26%
SKBR3 Native [12]; 15 nM epirubicin
  Percentages of apoptotic cells: 24%
SKBR3 Native [12]; 1000 nM epirubicin
  Percentages of apoptotic cells: 59%
SKBR3 15 nM-R; 1 nM epirubicin
  Percentages of apoptotic cells: 17%
SKBR3 15 nM-R; 15 nM epirubicin
  Percentages of apoptotic cells: 17%
SKBR3 15 nM-R; 1000 nM epirubicin
  Percentages of apoptotic cells: 34%
